Source: US7135467B2, “HIV integrase inhibitors” (priority 2003, dated 2006)

Test system: not given
Assay: not given
Conditions: not given
`Cn1c(N2CCOCC2)nc(C(=O)NCc2ccc(F)cc2)c(O)c1=O` [Compound 52, N-[(4-fluorophenyl)methyl]-1,6-dihydro-5-hydroxy-1-methyl-2-(4-morpholinyl)-6-oxo-4-pyrimidinecarboxamide] gave a melting point of 197 to 199 °C.
Molecule `Cc1ccc(CNC(=O)c2nc(N3CCOCC3)n(C)c(=O)c2O)cc1C` [Compound 57, N-[(3,4-dimethylphenyl)methyl]-1,6-dihydro-5-hydroxy-1-methyl-2-(4-morpholinyl)-6-oxo-4-pyrimidinecarboxamide] has a melting point of 164 to 166 °C.

Target: T1, HIV-integrase (recombinant integrase) (Human immunodeficiency virus type 1 group M subtype B, UniProt P12497)
T1 construct: Recombinant integrase (0.26 ng) was incubated with the beads
Assay: HIV-Integrase Inhibition Activity (SPA bead strand-transfer assay)
Assay type: biochemical
Conditions: recombinant integrase on biotin labeled substrate DNA/SPA beads, P33 labeled target DNA; read-out: Activity (IC50 against HIV-integrase)
Protocol: To evaluate in-vitro activity against HIV-integrase, 5 pmole of biotin labeled substrate DNA was bound to 100 μg of Streptavidin coated PVT SPA beads (Amersham Pharmacia Biotech). Recombinant integrase (0.26 ng) was incubated with the beads for 90 min at 37° C. Unbound enzyme was removed by washing the complex followed by addition of inhibitors and 0.1 fmol of P33 labeled target DNA. The reaction was stopped by adding EDTA to a final concentration of 10 mM. Samples were counted in TopCountNXT (Packard) and the CPM was used as a measure of integration. The reaction condition was as described in A. Engelman and R. Craigie, J. Virol. 69, 5908–5911 (1995). The sequences of substrate and target DNA were described in Nucleic Acid Research 22, 1121–1122 (1994). Activity equal to A refers to a compound having IC50=0.003 to 0.10 μM while B and C denote compounds the following IC50=0.1 to 1.0 μM and IC50≧1.0 μM respectively.
In the case of `Cn1c(N2CCOCC2)nc(C(=O)NCc2ccc(F)cc2)c(O)c1=O` [Compound 52, N-[(4-fluorophenyl)methyl]-1,6-dihydro-5-hydroxy-1-methyl-2-(4-morpholinyl)-6-oxo-4-pyrimidinecarboxamide], the IC50 is reported as 0.003 to 0.1 µM.
`Cc1ccc(CNC(=O)c2nc(N3CCOCC3)n(C)c(=O)c2O)cc1C` [Compound 57, N-[(3,4-dimethylphenyl)methyl]-1,6-dihydro-5-hydroxy-1-methyl-2-(4-morpholinyl)-6-oxo-4-pyrimidinecarboxamide] showed an IC50 of 0.003 to 0.1 µM.
`Cc1ncn(-c2nc(C(=O)NCc3ccc(F)cc3)c(O)c(=O)n2C)n1` [Compound 58, N-[(4-fluorophenyl)methyl]-1,6-dihydro-5-hydroxy-1-methyl-2-(3-methyl-1H-1,2,4-triazol-1-yl)-6-oxo-4-pyrimidinecarboxamide] showed an IC50 of 0.1 to 1 µM.
`Cn1c(N2CCCCS2(=O)=O)nc(C(=O)NCc2cccc(OC(F)(F)F)c2)c(O)c1=O` [Compound 48, 1,6-dihydro-5-hydroxy-1-methyl-6-oxo-2-(tetrahydro-1,1-dioxido-2H-1,2-thiazin-2-yl)-N-[[3-(trifluoromethoxy)phenyl]methyl]-4-pyrimidinecarboxamide] gave an IC50 of 0.1 to 1 µM.
With `Cn1c(N2CCCCS2(=O)=O)nc(C(=O)NCCCc2ccc(F)cc2)c(O)c1=O` [Compound 6, N-[3-(4-fluorophenyl)propyl]-1,6-dihydro-5-hydroxy-1-methyl-6-oxo-2-(tetrahydro-1,1-dioxido-2H-1,2-thiazin-2-yl)-4-pyrimidinecarboxamide] the IC50 was 0.003 to 0.1 µM.
`Cc1cc(CNC(=O)c2nc(N3CCC3)n(C)c(=O)c2O)ccc1F` [Compound 93, 2-(1-azetidinyl)-N-[(4-fluoro-3-methylphenyl)methyl]-1,6-dihydro-5-hydroxy-1-methyl-6-oxo-4-pyrimidinecarboxamide] showed an IC50 of 0.003 to 0.1 µM.
`Cn1c(N2CCCCS2(=O)=O)nc(C(=O)NCc2cc(Cl)cc(Cl)c2)c(O)c1=O` [Compound 12, N-[(3,5-dichlorophenyl)methyl]-1,6-dihydro-5-hydroxy-1-methyl-6-oxo-2-(tetrahydro-1,1-dioxido-2H-1,2-thiazin-2-yl)-4-pyrimidinecarboxamide] gave an IC50 of 0.003 to 0.1 µM.
`Cn1c(N2CCCCS2(=O)=O)nc(C(=O)NCc2cccc(F)c2)c(O)c1=O` [Compound 3, N-[(3-fluorophenyl)methyl]-1,6-dihydro-5-hydroxy-1-methyl-6-oxo-2-(tetrahydro-1,1-dioxido-2H-1,2-thiazin-2-yl)-4-pyrimidinecarboxamide] showed an IC50 of 0.1 to 1 µM.
Molecule `Cc1cc(CNC(=O)c2nc(N3CCN(c4ccccn4)CC3)n(C)c(=O)c2O)ccc1F` [Compound 76, N-[(4-fluoro-3-methylphenyl)methyl]-1,6-dihydro-5-hydroxy-1-methyl-6-oxo-2-[4-(2-pyridinyl)-1-piperazinyl]-4-pyrimidinecarboxamide] has an IC50 of 0.003 to 0.1 µM.
For `Cn1c(N2CCCCS2(=O)=O)nc(C(=O)NCc2ccc(Cl)c(Cl)c2)c(O)c1=O` [Compound 2, N-[(3,4-dichlorophenyl)methyl]-1,6-dihydro-5-hydroxy-1-methyl-6-oxo-2-(tetrahydro-1,1-dioxido-2H-1,2-thiazin-2-yl)-4-pyrimidinecarboxamide], the IC50 was 0.003 to 0.1 µM.
With `Cn1c(N2CCC(O)CC2)nc(C(=O)NCc2ccc(F)cc2)c(O)c1=O` [Compound 65, N-[(4-fluorophenyl)methyl]-1,6-dihydro-5-hydroxy-2-(4-hydroxy-1-piperidinyl)-1-methyl-6-oxo-4-pyrimidinecarboxamide] the IC50 was 0.003 to 0.1 µM.
With `Cc1cc(CNC(=O)c2nc(N3CCCCS3(=O)=O)n(C)c(=O)c2O)ccc1F` [Compound 13, N-[(4-fluoro-3-methylphenyl)methyl]-1,6-dihydro-5-hydroxy-1-methyl-6-oxo-2-(tetrahydro-1,1-dioxido-2H-1,2-thiazin-2-yl)-4-pyrimidinecarboxamide] the IC50 was 0.003 to 0.1 µM.
With `Cn1c(N2CCCCS2(=O)=O)nc(C(=O)NCCc2ccc(Cl)cc2)c(O)c1=O` [Compound 26, N-[2-(4-chlorophenyl)ethyl]-1,6-dihydro-5-hydroxy-1-methyl-6-oxo-2-(tetrahydro-1,1-dioxido-2H-1,2-thiazin-2-yl)-4-pyrimidinecarboxamide] the IC50 was ≥ 1 µM.
In the case of `Cn1c(N2CCN(c3ccccc3)CC2)nc(C(=O)NCc2ccc(F)cc2)c(O)c1=O` [Compound 79, N-[(4-fluorophenyl)methyl]-1,6-dihydro-5-hydroxy-1-methyl-6-oxo-2-(4-phenyl-1-piperazinyl)-4-pyrimidinecarboxamide], the IC50 is reported as 0.003 to 0.1 µM.
`Cn1c(N2CCCCS2(=O)=O)nc(C(=O)NCc2cc(F)cc(F)c2)c(O)c1=O` [Compound 47, N-[(3,5-difluorophenyl)methyl]-1,6-dihydro-5-hydroxy-1-methyl-6-oxo-2-(tetrahydro-1,1-dioxido-2H-1,2-thiazin-2-yl)-4-pyrimidinecarboxamide] gave an IC50 of 0.1 to 1 µM.
For `Cc1cc(CNC(=O)c2nc(N3CCCCC3CO)n(C)c(=O)c2O)ccc1F` (stereo not shown) [Compound 97, N-[(4-fluoro-3-methylphenyl)methyl]-1,6-dihydro-5-hydroxy-2-[2-(hydroxymethyl)-1-piperidinyl]-1-methyl-6-oxo-4-pyrimidinecarboxamide], the IC50 was 0.003 to 0.1 µM.
In the case of `Cc1cc(CNC(=O)c2nc(N3CCN(c4ncccn4)CC3)n(C)c(=O)c2O)ccc1F` [Compound 78, N-[(4-fluoro-3-methylphenyl)methyl]-1,6-dihydro-5-hydroxy-1-methyl-6-oxo-2-[4-(2-pyrimidinyl)-1-piperazinyl]-4-pyrimidinecarboxamide], the IC50 is reported as 0.003 to 0.1 µM.
In the case of `Cn1c(N2CCN(c3ccccn3)CC2)nc(C(=O)NCc2ccc(F)cc2)c(O)c1=O` [Compound 75, N-[(4-fluorophenyl)methyl]-1,6-dihydro-5-hydroxy-1-methyl-6-oxo-2-[4-(2-pyridinyl)-1-piperazinyl]-4-pyrimidinecarboxamide], the IC50 is reported as 0.003 to 0.1 µM.
Molecule `CNC(=O)N1CCN(c2nc(C(=O)NCc3ccc(F)cc3)c(O)c(=O)n2C)CC1` [Compound 87, N-[(4-fluorophenyl)methyl]-1,6-dihydro-5-hydroxy-1-methyl-2-[4-[(methylamino)carbonyl]-1-piperazinyl]-6-oxo-4-pyrimidinecarboxamide] has an IC50 of 0.003 to 0.1 µM.
With `Cn1c(N2Cc3ccc(F)cc3C2=O)nc(C(=O)NCc2ccc(F)cc2)c(O)c1=O` [Compound 102, 2-(6-fluoro-1,3-dihydro-1-oxo-2H-isoindol-2-yl)-N-[(4-fluorophenyl)methyl]-1,6-dihydro-5-hydroxy-1-methyl-6-oxo-4-pyrimidinecarboxamide] the IC50 was 0.003 to 0.1 µM.
With `Cn1c(N2CCN(C(=O)N3CCNC3=O)CC2)nc(C(=O)NCc2ccc(F)cc2)c(O)c1=O` [Compound 85, N-[(4-fluorophenyl)methyl]-1,6-dihydro-5-hydroxy-1-methyl-6-oxo-2-[4-[(2-oxo-1-imidazolidinyl)carbonyl]-1-piperazinyl]-4-pyrimidinecarboxamide] the IC50 was 0.003 to 0.1 µM.
Work on `Cn1c(N2CCCCS2(=O)=O)nc(C(=O)NCc2ccccc2Cl)c(O)c1=O` [Compound 36, N-[(2-chlorophenyl)methyl]-1,6-dihydro-5-hydroxy-1-methyl-6-oxo-2-(tetrahydro-1,1-dioxido-2H-1,2-thiazin-2-yl)-4-pyrimidinecarboxamide] yielded an IC50 of 0.1 to 1 µM.
In the case of `COc1ccc(CNC(=O)c2nc(N3CCCCS3(=O)=O)n(C)c(=O)c2O)cc1` [Compound 10, 1,6-dihydro-5-hydroxy-N-[(4-methoxyphenyl)methyl]-1-methyl-6-oxo-2-(tetrahydro-1,1-dioxido-2H-1,2-thiazin-2-yl)-4-pyrimidinecarboxamide], the IC50 is reported as 0.003 to 0.1 µM.
In the case of `Cn1c(N2CCCC2)nc(C(=O)NCc2ccc(F)cc2)c(O)c1=O` [Compound 91, N-[(4-fluorophenyl)methyl]-1,6-dihydro-5-hydroxy-1-methyl-6-oxo-2-(1-pyrrolidinyl)-4-pyrimidinecarboxamide], the IC50 is reported as 0.003 to 0.1 µM.
With `CC(=O)N1CCN(c2nc(C(=O)NCc3ccc(F)c(C)c3)c(O)c(=O)n2C)CC1` [Compound 72, 2-(4-acetyl-1-piperazinyl)-N-[(4-fluoro-3-methylphenyl)methyl]-1,6-dihydro-5-hydroxy-1-methyl-6-oxo-4-pyrimidinecarboxamide] the IC50 was 0.003 to 0.1 µM.
`Cc1ccc(CNC(=O)c2nc(N3CCCCS3(=O)=O)n(C)c(=O)c2O)cc1C` [Compound 19, N-[(3,4-dimethylphenyl)methyl]-1,6-dihydro-5-hydroxy-1-methyl-6-oxo-2-(tetrahydro-1,1-dioxido-2H-1,2-thiazin-2-yl)-4-pyrimidinecarboxamide] showed an IC50 of 0.003 to 0.1 µM.
In the case of `Cn1c(N2CCCCS2(=O)=O)nc(C(=O)NCCc2cccc(F)c2)c(O)c1=O` [Compound 21, N-[2-(3-fluorophenyl)ethyl]-1,6-dihydro-5-hydroxy-1-methyl-6-oxo-2-(tetrahydro-1,1-dioxido-2H-1,2-thiazin-2-yl)-4-pyrimidinecarboxamide], the IC50 is reported as ≥ 1 µM.
With `Cn1c(N2CCCCS2(=O)=O)nc(C(=O)NCC(c2ccccc2)c2ccccc2)c(O)c1=O` [Compound 25, N-(2,2-diphenylethyl)-1,6-dihydro-5-hydroxy-1-methyl-6-oxo-2-(tetrahydro-1,1-dioxido-2H-1,2-thiazin-2-yl)-4-pyrimidinecarboxamide] the IC50 was ≥ 1 µM.
With `Cc1cc(CNC(=O)c2nc(N3CCN(c4ccccc4)CC3)n(C)c(=O)c2O)ccc1F` [Compound 80, N-[(4-fluoro-3-methylphenyl)methyl]-1,6-dihydro-5-hydroxy-1-methyl-6-oxo-2-(4-phenyl-1-piperazinyl)-4-pyrimidinecarboxamide] the IC50 was 0.003 to 0.1 µM.
